Experimental data as given in the supplement of paper PMC13380429.
Counter-ions that a name gives are not always drawn.

How the values were obtained:
Settings in all cases: 72 h
Vero E6 [1] = test: drug sensitivity score (DSS) for viability; higher = more toxic; extreme values may be limits of the assay
Calu-3 [2] = test: as above
Caco-2 [3] = test: as above
HepG2 [4] = test: as above
U2OS [5] = test: as above
Vero E6 [6] = test: cell viability relative to DMSO; higher = less toxic
Calu-3 [7] = test: as above
Caco-2 [8] = test: as above
HepG2 [9] = test: as above
U2OS [10] = test: as above
Vero E6 [11] = test: relative viability EC50 (midpoint between 100% and the lowest measured viability); higher = less toxic
Calu-3 [12] = test: as above
Caco-2 [13] = test: as above
HepG2 [14] = test: as above
U2OS [15] = test: as above

Row | SMILES | drug sensitivity score (Vero E6 [1]) | drug sensitivity score (Calu-3 [2]) | drug sensitivity score (Caco-2 [3]) | drug sensitivity score (HepG2 [4]) | drug sensitivity score (U2OS [5]) | cell viability (Vero E6 [6]; 1 nM) [%] | cell viability (Vero E6 [6]; 10 nM) [%] | cell viability (Vero E6 [6]; 100 nM) [%] | cell viability (Vero E6 [6]; 1000 nM) [%] | cell viability (Vero E6 [6]; 10000 nM) [%] | cell viability (Calu-3 [7]; 1 nM) [%] | cell viability (Calu-3 [7]; 10 nM) [%] | cell viability (Calu-3 [7]; 100 nM) [%] | cell viability (Calu-3 [7]; 1000 nM) [%] | cell viability (Calu-3 [7]; 10000 nM) [%] | cell viability (Caco-2 [8]; 1 nM) [%] | cell viability (Caco-2 [8]; 10 nM) [%] | cell viability (Caco-2 [8]; 100 nM) [%] | cell viability (Caco-2 [8]; 1000 nM) [%] | cell viability (Caco-2 [8]; 10000 nM) [%] | cell viability (HepG2 [9]; 1 nM) [%] | cell viability (HepG2 [9]; 10 nM) [%] | cell viability (HepG2 [9]; 100 nM) [%] | cell viability (HepG2 [9]; 1000 nM) [%] | cell viability (HepG2 [9]; 10000 nM) [%] | cell viability (U2OS [10]; 1 nM) [%] | cell viability (U2OS [10]; 10 nM) [%] | cell viability (U2OS [10]; 100 nM) [%] | cell viability (U2OS [10]; 1000 nM) [%] | cell viability (U2OS [10]; 10000 nM) [%] | relative viability EC50 (Vero E6 [11]) [µM] | relative viability EC50 (Calu-3 [12]) [µM] | relative viability EC50 (Caco-2 [13]) [µM] | relative viability EC50 (HepG2 [14]) [µM] | relative viability EC50 (U2OS [15]) [µM]
1 | CC[N+](CC)(CCNC(=O)C(=O)NCC[N+](CC)(CC)Cc1ccccc1Cl)Cc1ccccc1Cl [ambenonium] | 0 | 0 | 0 | 0 | 0 | 96.4 | 95.5 | 97.9 | 93.1 | 95.3 | 103 | 99.8 | 103 | 97.6 | 141 | 94.7 | 96 | 93.6 | 93.9 | 92.5 | 98.6 | 105 | 96.6 | 100 | 105 | 97.7 | 96.3 | 100 | 94.9 | 100 | > 10 | > 10 | > 10 | > 10 | > 10
2 | CNCC(O)c1ccc(O)c(O)c1 (racemic) [DL-Adrenaline] | 0 | 0 | 0 | 0 | 0 | 95.3 | 93.2 | 96.6 | 93.8 | 104 | 99.8 | 98.3 | 92.4 | 92.7 | 105 | 94.8 | 97.8 | 90.1 | 93.7 | 95.7 | 105 | 90.8 | 110 | 99.4 | 113 | 98.7 | 99.6 | 89 | 99.9 | 103 | > 10 | > 10 | > 10 | > 10 | > 10
3 | O=C(c1ccc(F)cc1)C1CCN(CCCCc2ccccc2)CC1 [4-(4-fluorobenzoyl)-1-(4-phenylbutyl)-piperidine] | 0 | 0.1 | 0 | 0.6 | 0 | 103 | 105 | 102 | 98.9 | 95.7 | 104 | 106 | 87.9 | 106 | 85.8 | 98.9 | 99.6 | 106 | 90.4 | 94.9 | 101 | 96 | 95.2 | 101 | 79.4 | 99.4 | 96.8 | 96.8 | 95.9 | 98.2 | > 10 | > 10 | > 10 | > 10 | > 10
4 | N#C[C@H](O[C@@H]1O[C@H](CO[C@@H]2O[C@H](CO)[C@@H](O)[C@H](O)[C@H]2O)[C@@H](O)[C@H](O)[C@H]1O)c1ccccc1 [amygdalin] | 0 | 0 | 0 | 0 | 0 | 101 | 103 | 96 | 95.5 | 102 | 99.2 | 105 | 93.3 | 109 | 107 | 98.4 | 104 | 110 | 92.8 | 104 | 100 | 98.8 | 104 | 101 | 96.6 | 96.9 | 105 | 100 | 104 | 101 | > 10 | > 10 | > 10 | > 10 | > 10
5 | CN[C@@H](C)C(=O)N[C@H](C(=O)N1CCC[C@H]1C(=O)N[C@H]1c2ccccc2C[C@H]1OCC#CC#CCO[C@@H]1Cc2ccccc2[C@@H]1NC(=O)[C@@H]1CCCN1C(=O)[C@@H](NC(=O)[C@H](C)NC)C1CCCCC1)C1CCCCC1 [AZD5582] | 0 | 6.8 | 1.1 | 0 | 0 | 100 | 106 | 119 | 95.2 | 136 | 102 | 99.8 | 85.8 | 73.2 | 37.7 | 93.3 | 103 | 102 | 93.4 | 82.4 | 107 | 98.8 | 94 | 106 | 87.8 | 98.3 | 104 | 98.4 | 101 | 91.1 | > 10 | 0.927 | > 10 | > 10 | > 10
6 | CN1CC[C@H](c2c(O)cc(O)c3c(=O)cc(-c4ccccc4Cl)oc23)[C@H](O)C1 [alvocidib] | 17.8 | 14.5 | 14.7 | 22.1 | 18.1 | 102 | 102 | 95.2 | 5.5 | 3.4 | 89.9 | 98.4 | 80.4 | 36.8 | 37.4 | 104 | 99.3 | 93.3 | 25.5 | 30.2 | 100 | 106 | 59.3 | 9.5 | 7.2 | 98.7 | 101 | 95.4 | 3 | 3.4 | 0.29 | 0.138 | 0.242 | 0.111 | 0.28
7 | C[C@H](CCC(=O)O)[C@H]1CC[C@H]2[C@@H]3[C@H](O)C[C@@H]4C[C@H](O)CC[C@]4(C)[C@H]3C[C@H](O)[C@]12C [cholic-acid] | 0 | 0 | 0 | 0 | 0 | 102 | 102 | 100 | 100 | 99.4 | 87 | 91.1 | 88 | 99 | 96.9 | 93.3 | 92.3 | 95.3 | 100 | 93 | 112 | 97.5 | 96.3 | 94.2 | 102 | 97.3 | 100 | 93.5 | 102 | 96.5 | > 10 | > 10 | > 10 | > 10 | > 10
8 | O=C(CCBr)N1CC[N+]2(CC1)CC[N+]1(CCN(C(=O)CCBr)CC1)CC2 [spirobromin] | 0 | 0 | 0 | 0 | 0 | 91.2 | 101 | 96.4 | 91.5 | 106 | 110 | 100 | 94.7 | 110 | 100 | 103 | 87 | 94.2 | 109 | 108 | 91.7 | 91.5 | 96.6 | 106 | 96.4 | 96.4 | 95.2 | 97.3 | 99.4 | 97.7 | > 10 | > 10 | > 10 | > 10 | > 10
9 | CCC[C@@]1(CCc2ccccc2)CC(O)=C([C@H](CC)c2cccc(NS(=O)(=O)c3ccc(C(F)(F)F)cn3)c2)C(=O)O1 [tipranavir] | 0 | 0 | 0 | 0 | 0 | 104 | 102 | 100 | 102 | 105 | 107 | 98.1 | 102 | 109 | 118 | 98.5 | 97.1 | 93.6 | 103 | 93.1 | 94.8 | 103 | 93.6 | 103 | 93.9 | 100 | 99.4 | 100 | 104 | 101 | > 10 | > 10 | > 10 | > 10 | > 10
10 | CO/N=C(\C(=O)N[C@@H]1C(=O)N2C(C(=O)O)=C(Cn3ccc(=N)n3CCO)CS[C@H]12)c1csc(N)n1 [Cefoselis sulfate] | 0 | 0 | 0 | 0 | 0 | 103 | 102 | 105 | 97.2 | 101 | 95.8 | 100 | 95.7 | 96.1 | 104 | 106 | 97.6 | 90.7 | 106 | 93.8 | 102 | 116 | 91.4 | 103 | 101 | 96.6 | 103 | 93.8 | 102 | 101 | > 10 | > 10 | > 10 | > 10 | > 10
11 | O=C(/C=C/N1C[C@H]2C[C@@H]1CN2c1ccccn1)c1ccccc1O [PFI-3] | 0 | 0 | 0 | 0 | 0 | 99.3 | 90.4 | 99.6 | 93.8 | 104 | 101 | 115 | 98.1 | 96.1 | 107 | 92 | 94.5 | 88.5 | 98.1 | 106 | 97.3 | 99.8 | 110 | 99.5 | 96.2 | 92.6 | 99.7 | 96.1 | 99.7 | 101 | > 10 | > 10 | > 10 | > 10 | > 10
